Results from PubChem BioAssay AID264 (DTP/NCI, 2004).
Several values for one entry are separate records, joined by “and”; a condition that tells them apart may be missing. Equal values may be shown once. Results filed as inconclusive are left out.

Tested on: nude mice, LX-1 lung xenograft intrarenal, tumor weight T/C
Assay: NCI In Vivo Anticancer Drug Screen. Data for tumor model Human Lung LX-1 Xenograft (intrarenal inoculation) in NU/NU Swiss (nude) mice
Conditions: endpoint: mean tumor weight change, higher = larger tumour
Procedure, shortened: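 In vivo, transplantable tumor; compound vs vehicle arms; tumor size measured; value = T/C.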

[1] = dose: 300.0 mg/kg/injection, schedule: Q04DX003 (sc), vehicle: saline with Tween-80
[2] = dose: 600.0 mg/kg/injection, schedule: Q04DX003 (sc), vehicle: saline with Tween-80
[3] = dose: 1200.0 mg/kg/injection, schedule: Q04DX003 (sc), vehicle: saline with Tween-80
[4] = dose: 2400.0 mg/kg/injection, schedule: Q04DX003 (sc), vehicle: saline with Tween-80
[5] = dose: 75.0 mg/kg/injection, schedule: Q04DX003 (sc), vehicle: saline
[6] = dose: 150.0 mg/kg/injection, schedule: Q04DX003 (sc), vehicle: saline with Tween-80
[7] = dose: 75.0 mg/kg/injection, schedule: Q04DX003 (sc), vehicle: Klucel (hydroxypropylcellulose) (HPC)
[8] = dose: 100.0 mg/kg/injection, schedule: Q04DX003 (sc), vehicle: saline

SMILES: COc1cc(Cl)ccc1C
- T/C [1]: 116 % of control
- T/C [2]: 88 % of control
- T/C [3]: 100 % of control
- T/C [4]: 121 % of control

SMILES: N=C(N)Sc1cc(O)ccc1O
- T/C [5]: 91 % of control
- T/C (dose: 150.0 mg/kg/injection, schedule: Q04DX003 (sc), vehicle: saline): 164 % of control

SMILES: CN(C1=NS(=O)(=O)N=C(N(C)c2ccccc2)O1)c1ccccc1
- T/C (dose: 300.0 mg/kg/injection, schedule: Q04DX003 (sc), vehicle: Klucel (hydroxypropylcellulose) (HPC)): 66 % of control
- T/C (dose: 600.0 mg/kg/injection, schedule: Q04DX003 (sc), vehicle: Klucel (hydroxypropylcellulose) (HPC)): 61 % of control
- T/C (dose: 1200.0 mg/kg/injection, schedule: Q04DX003 (sc), vehicle: Klucel (hydroxypropylcellulose) (HPC)): 79 % of control
- T/C (dose: 2400.0 mg/kg/injection, schedule: Q04DX003 (sc), vehicle: Klucel (hydroxypropylcellulose) (HPC)): 91 % of control

SMILES: S=C=NCCc1ccccc1
- T/C (dose: 200.0 mg/kg/injection, schedule: Q01DX010 (sc), vehicle: saline with Tween-80): 68 % of control

SMILES: CC[C@@]1(O)C[C@H](OC2CC(N(C)C)C(OC3CC(O)C(OC4CCC(=O)C(C)O4)C(C)O3)C(C)O2)c2c(cc3c(c2O)C(=O)c2c(O)ccc(O)c2C3=O)[C@H]1C(=O)OC (stereo partly specified)
- T/C (dose: 3.0 mg/kg/injection, schedule: Q04DX003 (sc), vehicle: water): 51 % of control
- T/C (dose: 6.0 mg/kg/injection, schedule: Q04DX003 (sc), vehicle: water): 79 % of control

SMILES: Brc1ccc(C[N+]23CN4CN(CN(C4)C2)C3)cc1
- T/C [6]: 91 % of control
- T/C [1]: 101 % of control
- T/C [2]: 76 % of control

SMILES: CN=C(N)N/N=C(\C)c1ccc2c(c1)Cc1ccccc1-2
- T/C [6]: 152 % of control
- T/C [1]: 117 % of control
- T/C [2]: 106 % of control

SMILES: O=c1[nH]c(=O)n(C2CC(O)C(CO)O2)cc1Br (stereo unspecified)
- T/C (dose: 200.0 mg/kg/injection, schedule: Q01DX010 (sc), vehicle: Klucel (hydroxypropylcellulose) (HPC)): 35 % of control
- T/C (dose: 400.0 mg/kg/injection, schedule: Q01DX010 (sc), vehicle: Klucel (hydroxypropylcellulose) (HPC)): 35 % of control
- T/C (dose: 800.0 mg/kg/injection, schedule: Q01DX010 (sc), vehicle: Klucel (hydroxypropylcellulose) (HPC)): 27 % of control

SMILES: [N-]=[N+]=C1N=CN=C1c1ncn[nH]1
- T/C (dose: 12.5 mg/kg/injection, schedule: Q01DX010 (sc), vehicle: Klucel (hydroxypropylcellulose) (HPC)): 153 % of control
- T/C (dose: 50.0 mg/kg/injection, schedule: Q01DX010 (sc), vehicle: Klucel (hydroxypropylcellulose) (HPC)): 55 % of control

SMILES: COc1cc2cc[n+](C)c(Cc3ccccc3)c2cc1OC
- T/C (dose: 37.5 mg/kg/injection, schedule: Q04DX003 (sc), vehicle: Klucel (hydroxypropylcellulose) (HPC)): 88 % of control
- T/C [7]: 115 % of control

SMILES: CCN(CC)c1ccc2cc(-c3nc4ccccc4n3C)c(=O)oc2c1
- T/C [7]: 105 % of control
- T/C (dose: 150.0 mg/kg/injection, schedule: Q04DX003 (sc), vehicle: Klucel (hydroxypropylcellulose) (HPC)): 81 % of control

SMILES: Nc1n[n+](-c2ccccc2)no1
- T/C (dose: 37.5 mg/kg/injection, schedule: Q04DX003 (sc), vehicle: water): 87 % of control
- T/C (dose: 75.0 mg/kg/injection, schedule: Q04DX003 (sc), vehicle: water): 89 % of control

SMILES: CC12CCC3C(CCC4CC(OC(=O)Cc5ccc(N(CCCl)CCCl)cc5)CCC43C)C1CCC(=O)N2 (stereo unspecified)
- T/C (dose: 25.0 mg/kg/injection, schedule: Q04DX003 (sc), vehicle: saline with Tween-80): 43 % of control and 66 % of control
- T/C (dose: 200.0 mg/kg/injection, schedule: Q04DX003 (sc), vehicle: saline with Tween-80): 8 % of control and 9 % of control

SMILES: O.O.[NH-]C1CCCCC1[NH-].[Pt+2] (stereo unspecified)
- T/C (dose: 5.0 mg/kg/injection, schedule: Q01DX010 (sc), vehicle: dextrose): 68 % of control
- T/C (dose: 10.0 mg/kg/injection, schedule: Q01DX010 (sc), vehicle: dextrose): 74 % of control
- T/C (dose: 20.0 mg/kg/injection, schedule: Q01DX010 (sc), vehicle: dextrose): 57 % of control

SMILES: COc1cccc(C2NC(=O)c3c(n[nH]c3N)S2)c1O (stereo unspecified)
- T/C [1]: 171 % of control
- T/C [2]: 77 % of control
- T/C [3]: 95 % of control
- T/C [4]: 162 % of control

SMILES: CN(C=O)C(C(=O)Nc1cccc2c(OC(=O)C(N(C)C=O)(N(C)C=O)N(C)C=O)c(N=Nc3ccc(S(=O)(=O)Nc4nccs4)cc3)cc(N=Nc3ccc(S(=O)(=O)Nc4nccs4)cc3)c12)(N(C)C=O)N(C)C=O (tested in a mixture with another compound)
- T/C [6]: 109 % of control
- T/C [1]: 71 % of control
- T/C [2]: 120 % of control
- T/C [3]: 95 % of control

SMILES: O=C(/C=C(\Cl)C(=O)NO)NO
- T/C [8]: 103 % of control

SMILES: O=P1(N(CCCl)CCCl)NCCCO1 (stereo unspecified)
- T/C (dose: 3.13 mg/kg/injection, schedule: Q01DX010 (sc), vehicle: saline): 76 % of control
- T/C (dose: 6.25 mg/kg/injection, schedule: Q01DX010 (ip), vehicle: saline): 48 % of control
- T/C (dose: 6.25 mg/kg/injection, schedule: Q01DX010 (sc), vehicle: saline): 85 % of control
- T/C (dose: 12.5 mg/kg/injection, schedule: Q01DX010 (ip), vehicle: saline): 29 % of control
- T/C (dose: 20.8 mg/kg/injection, schedule: Q04DX003 (ip), vehicle: saline): 151 % of control
- T/C (dose: 25.0 mg/kg/injection, schedule: Q01DX010 (ip), vehicle: saline): 56 % of control
- T/C (dose: 41.66 mg/kg/injection, schedule: Q04DX003 (ip), vehicle: saline): 51 % of control
- T/C (dose: 41.66 mg/kg/injection, schedule: Q04DX003 (sc), vehicle: saline): 44 % of control
- T/C (dose: 50.0 mg/kg/injection, schedule: Q04DX003 (sc), vehicle: suspension in saline): 87 % of control and 92 % of control
- T/C (dose: 83.33 mg/kg/injection, schedule: Q04DX003 (sc), vehicle: saline): 20 % of control
- T/C [8]: 28 % of control
- T/C (dose: 100.0 mg/kg/injection, schedule: Q04DX003 (sc), vehicle: suspension in saline): 70 % of control and 90 % of control
- T/C (dose: 200.0 mg/kg/injection, schedule: Q04DX003 (sc), vehicle: saline): 13 % of control
- T/C (dose: 200.0 mg/kg/injection, schedule: Q04DX003 (sc), vehicle: suspension in saline): 42 % of control

SMILES: CS(=O)(=O)OCCCNCCCOS(C)(=O)=O
- T/C [5]: 71 % of control

SMILES: Cc1c(N)nc([C@H](CC(N)=O)NC[C@H](N)C(N)=O)nc1C(=O)N[C@H](C(=O)N[C@H](C)[C@@H](O)[C@H](C)C(=O)N[C@H](C(=O)NCCc1nc(-c2nc(C(=O)NCCC[S+](C)C)cs2)cs1)[C@@H](C)O)C(OC1OC(CO)C(O)C(O)C1OC1OC(CO)C(O)C(OC(N)=O)C1O)c1cnc[nH]1 (stereo partly specified)
- T/C (dose: 2.0 mg/kg/injection, schedule: Q01DX010 (sc), vehicle: saline): 14 % of control
- T/C (dose: 4.0 mg/kg/injection, schedule: Q01DX010 (sc), vehicle: saline): 71 % of control
- T/C (dose: 16.0 mg/kg/injection, schedule: Q04DX003 (sc), vehicle: saline): 49 % of control
- T/C (dose: 32.0 mg/kg/injection, schedule: Q04DX003 (sc), vehicle: saline): 47 % of control

SMILES: OCC1OC(n2cnc3cc(Cl)c(Cl)cc32)C(O)C1O (stereo unspecified)
- T/C [1]: 112 % of control
- T/C [2]: 86 % of control
- T/C [3]: 94 % of control
- T/C [4]: 72 % of control

SMILES: C=CC(C)(C)n1cc(C2=C(O)C(=O)C(c3cn(C(C)(C)C=C)c4ccccc34)=C(O)C2=O)c2ccccc21
- T/C (dose: 50.0 mg/kg/injection, schedule: Q04DX003 (sc), vehicle: Klucel (hydroxypropylcellulose) (HPC)): 63 % of control
- T/C (dose: 100.0 mg/kg/injection, schedule: Q04DX003 (sc), vehicle: Klucel (hydroxypropylcellulose) (HPC)): 71 % of control
- T/C (dose: 200.0 mg/kg/injection, schedule: Q04DX003 (sc), vehicle: Klucel (hydroxypropylcellulose) (HPC)): 124 % of control
- T/C (dose: 400.0 mg/kg/injection, schedule: Q04DX003 (sc), vehicle: Klucel (hydroxypropylcellulose) (HPC)): 83 % of control

SMILES: CN1CCN(c2ccc([N+](=O)[O-])c3no[n+]([O-])c23)CC1
- T/C [6]: 73 % of control

SMILES: Cc1c2cc[n+](C)cc2c(C)c2c1[nH]c1ccc(O)cc12
- T/C (dose: 1.5 mg/kg/injection, schedule: Q04DX003 (sc), vehicle: water): 151 % of control

SMILES: CN1CCN(Cc2nc3cccc4c3c([n+]2[O-])-c2ccccc2-4)CC1
- T/C (dose: 12.5 mg/kg/injection, schedule: Q01DX010 (sc), vehicle: saline with Tween-80): 83 % of control
- T/C (dose: 25.0 mg/kg/injection, schedule: Q01DX010 (sc), vehicle: saline with Tween-80): 161 % of control
- T/C (dose: 50.0 mg/kg/injection, schedule: Q01DX010 (sc), vehicle: saline with Tween-80): 180 % of control
